Article PMC5855801, “Benzothiophenone Derivatives Targeting Mutant Forms of Estrogen Receptor-α in Hormone-Resistant Breast Cancers” (International Journal of Molecular Sciences, 2018)

Key:
[1] = target: T1, full-length ERα (estrogen binding site) (Homo sapiens, UniProt P03372); assay: E2 displacement fluorescence polarization assay (PolarScreen ERα Competitor Green); conditions: highest concentration 6 µM, compared to positive control E2
T1 construct: in the presence of 25 nM full-length ERα and 4.5 nM flourescein-E2; purchased Life Technologies P2698
T1 sequence (P03372 1-595): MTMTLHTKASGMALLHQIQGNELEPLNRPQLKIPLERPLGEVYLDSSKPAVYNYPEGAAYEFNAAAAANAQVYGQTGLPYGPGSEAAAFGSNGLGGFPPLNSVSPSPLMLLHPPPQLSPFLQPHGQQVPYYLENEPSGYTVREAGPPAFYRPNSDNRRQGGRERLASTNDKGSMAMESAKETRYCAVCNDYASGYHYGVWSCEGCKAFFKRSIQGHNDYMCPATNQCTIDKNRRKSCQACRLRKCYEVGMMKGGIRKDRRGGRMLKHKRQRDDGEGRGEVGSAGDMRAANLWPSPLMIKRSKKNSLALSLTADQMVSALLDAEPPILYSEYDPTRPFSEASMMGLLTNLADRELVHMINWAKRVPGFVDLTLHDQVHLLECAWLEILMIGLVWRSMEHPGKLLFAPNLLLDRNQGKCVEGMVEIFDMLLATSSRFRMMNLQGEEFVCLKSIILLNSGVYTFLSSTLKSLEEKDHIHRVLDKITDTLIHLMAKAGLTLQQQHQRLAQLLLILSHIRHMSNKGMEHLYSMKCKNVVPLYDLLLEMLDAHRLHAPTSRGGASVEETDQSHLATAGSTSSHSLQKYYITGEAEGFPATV
Method: It should be noted that selective estrogen receptor modulators (SERMs) such as tamoxifen displace co-activator protein from AF2 allosterically, i.e., by binding to the estrogen binding site (EBS). To ascertain whether VPC-16606 is not an EBS binder, 17 β-estradiol (E2) displacement was assessed with the Polar Screen Estrogen Receptor-α Competitor Green Assay Kit (P2698, Life Technologies, Carlsbad, CA, USA).
E2 displacement was assessed with the PolarScreen ERα Competitor Assay Green kit (P2698; LifeTechnologies) as per the instructions of the manufacturer. Briefly, 50 µL of assay buffer containing VPC-16606 were added to a 50-μL mixture containing 2× full-length ERα and flourescein-E2 in each well of a […] black plate to obtain final concentrations of 0.2–6.3 μM of the test compound in the presence of 25 nM full-length ERα and 4.5 nM flourescein-E2. After 2 h, polarisation was measured on a Tecan F500 microplate reader.

[2] = system: ERα-dependent genes pS2, PR, Cyclin D1 and CDC2; assay: qRT-PCR of ERα-dependent genes in TamR3 cells; assay type: cell-based, human; conditions: TamR3, 24 h, 1 nM E2
Method: mRNA levels were analyzed after treatment of MCF7 and TamR3 cells for 24 h with the test compounds as described previously. The fold change in expression of the genes was calculated using the 2^−ΔΔCt method with GAPDH as the internal control.

ERα LBD = target: T2, ERα LBD (Homo sapiens, UniProt P03372); assay: Biolayer interferometry (BLI) direct binding assay; conditions: biotinylated ERα LBD on streptavidin sensor, 3–100 μM
T2 construct: ERα LBD (amino acids 302–552) was cloned into the pAN4 AviTag™ Vector; made in house
T2 sequence (P03372 302-552): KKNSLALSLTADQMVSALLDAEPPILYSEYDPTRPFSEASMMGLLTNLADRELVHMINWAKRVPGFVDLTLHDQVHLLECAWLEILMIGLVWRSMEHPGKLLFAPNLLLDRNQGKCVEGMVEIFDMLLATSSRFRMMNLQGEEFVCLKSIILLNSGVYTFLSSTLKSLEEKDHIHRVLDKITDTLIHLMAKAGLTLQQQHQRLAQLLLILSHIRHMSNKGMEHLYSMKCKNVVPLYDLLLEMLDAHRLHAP
Method: The direct binding of small molecules to the ERα-LBD was quantified by BLI using an Octet RED apparatus (Pall ForteBio, Menlo Park, CA, USA). ERα LBD (amino acids 302–552) was cloned into the pAN4 AviTag™ Vector, (Avidity, Aurora, CO, USA). Biotinylated ERα-LBD was purified as described previously. Biotinylated protein (bERα LBD at 0.05 mg/mL) was bound to the super streptavidin sensors (Pall ForteBio) overnight at 4 °C in assay buffer (20 mM Tris, pH 7.5, 500 mM NaCl, 0.2 mM tris(2-carboxyethyl)phosphine TCEP, 0.02 mM E2, 5% glycerol and 5% dimethyl sulfoxide (DMSO). The compounds were dissolved in the assay buffer in a two-fold dilution series ranging from 3.1–100 μM. In all experiments, a known AF2-interacting peptide, PGC-1α (Elim Biopharmaceuticals, Hayward, CA, USA) was used as a control to confirm the functionality of the bERα LBD.

`CC(=O)N(/N=C1\Sc2c(C)cccc2C1=O)c1ccccc1Cl` [VPC-16606] was tested, and the “Displacement of fluorescein labelled E2 (FL-E2) from the EBS” value [1] was “minimal displacement”, the “mRNA levels of ERα-dependent genes pS2, PR, Cyclin D1 and CDC2” value [2] was “significantly downregulates” and the “Direct binding to ERα LBD (BLI)” value (ERα LBD) was “direct reversible interaction”.
